Values quoted from earlier work in patent US20230107398A1, “IMMEDIATE RELEASE FORMULATIONS OF d-LYSERGIC ACID DI[…] THERAPEUTIC APPLICATIONS” (Mind Medicine, Inc., priority 2021, published 2023).

Settings: room temperature

CCN(CC)C(=O)[C@@H]1C=C2c3cccc4[nH]cc(c34)C[C@H]2N(C)C1 [LSD, 9,10-didehydro-N,N-diethyl-6-methylergoline-8β-carboxamide]
Stability in oral solution: not stable
